Source: patent US20050101595A1, “N-containing cycloalkyl-substituted amino-thiazole derivatives and pharmaceutical compositions for inhibiting cell proliferation and methods for their use” (PFIZER INC., priority 2003, published 2005)
Where a name gives a salt, the structure may show the parent alone.

Columns and labels:
CDK2/Cyclin A = CDK2/Cyclin A (Homo sapiens, UniProt P24941); assay: Inhibition of CDK2/Cyclin A Retinoblastoma Kinase Activity; assay type: biochemical; conditions: for inhibition at 0.05 µM: read-out: % inhibition of CDK2 (@ 0.05 μM), compound at 0.05 μM; for Ki: apparent Ki, CDK2/proteolyzed cyclin A, Rb fragment substrate, 25 μM ATP
Method: Cyclin-dependent kinase activity was measured by quantifying the enzyme-catalyzed, time-dependent incorporation of radioactive phosphate from [^32P]ATP or [^33P]ATP into a protein substrate. Unless noted otherwise, assays were performed in 96-well plates in a total volume of 50 μL, in the presence of 10 mM HEPES (N-[2-hydroxyethyl]piperazine-N′-[2-ethanesulfonic acid]) (pH 7.4), 10 mM MgCl2, 25 μM adenosine triphosphate (ATP), 1 mg/mL ovalbumin, 5 μg/mL leupeptin, 1 mM dithiothreitol, 10 mM β-glycerophosphate, 0.1 mM sodium vanadate, 1 mM sodium fluoride, 2.5 mM ethylene glycol-bis(β-aminoethyl ether)-N,N,N′N′-tetraacetic acid (EGTA), 2% (v/v) dimethylsulfoxide, and 0.03-0.4 μCi [^32/33P]ATP per reaction. Reactions were initiated with enzyme, incubated at 30° C., and terminated after 20 minutes by the addition of ethylenediaminetetraacetic acid (EDTA) to 250 mM. The phosphorylated substrate was then captured on a nitrocellulose or phosphocellulose membrane using a 96-well filtration manifold, and unincorporated radioactivity was removed by repeated washing with 0.85% phosphoric acid. Radioactivity was quantified by exposing the dried membranes to a phosphorimager.
Inhibition was measured relative to control wells that contained all reaction components including 2% (v/v) DMSO but no compound, after subtraction of background radioactivity measured in the absence of enzyme. Apparent Ki values of discrete compounds were measured by assaying enzyme activity in the presence of different inhibitor compound concentrations and subtracting the background radioactivity measured in the absence of enzyme. The kinetic parameters (kcat, Km for ATP) were measured for each enzyme under the usual assay conditions by determining the dependence of initial rates on ATP concentration. Inhibition data were fit to an equation for competitive inhibition using Kaleidagraph (Synergy Software), or were fit to an equation for competitive tight-binding inhibition using the software KineTic (BioKin, Ltd.).
Inhibition of CDK2/Cyclin A Retinoblastoma Kinase Activity:
CDK2 was purified using published methodology (Rosenblatt et al., “Purification and Crystallization of Human Cyclin-dependent Kinase 2,” J. Mol. Biol., vol. 230, 1993, pp. 1317-1319) from insect cells that had been infected with a baculovirus expression vector. […] A complex of CDK2 and proteolyzed cyclin A was prepared and purified by gel filtration. The substrate for this assay was the same Rb substrate fragment used for the CDK4 assays, and the methodology of the CDK2/delta cyclin A and the CDK4/delta cyclin D3 assays was essentially the same, except that CDK2 was present at 10 nM or 19 nM. The duration of the assay was 60 or 75 minutes, during which the time-dependence of product formation was linear and initial rate conditions were met. And, the percent inhibitions of the compounds of Example O through Example R were calculated as described above and shown in Table 2.

HCT-116 cell line = assay: Inhibition of cell growth, tetrazolium salt (MTT) assay; assay type: cell-based; conditions: Homo sapiens, MTT; for inhibition at 0.175 µM: HCT-116, HCT-116 cells, compound at 0.175 uM; for IC50: HCT-116, 120 h, first HCT-116 column (c4), three to five days, read-out: HCT-116 IC50
Summary of the method: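 First, cells were seeded in McCoy's 5A medium and held 4 h. Next, inhibitor concentrations in 0.5% (v/v) DMSO were applied for three to five days at 37° C, 5% CO2. Finally, after 4 h with 0.2 mg/mL MTT and medium removal, solubilized formazan was measured at 540 nm.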

| inhibition at 0.05 µM (CDK2/Cyclin A) | Ki (CDK2/Cyclin A) | IC50 (HCT-116 cell line) | Compound | inhibition at 0.175 µM (HCT-116 cell line) |
| --- | --- | --- | --- | --- |
| 76% |  |  | Nc1nc(NC2CCN(S(=O)(=O)CCCNCc3ccc[nH]c3=O)CC2)sc1C(=O)c1c(F)cccc1F [Example V169] | 25% |
| 81% |  |  | Nc1nc(NC2CCN(S(=O)(=O)CCCNCC3CCCO3)CC2)sc1C(=O)c1c(F)cccc1F (centres unmarked) [Example V20] | 9% |
| 81% |  |  | Cc1cnc(CNCCCS(=O)(=O)N2CCC(Nc3nc(N)c(C(=O)c4c(F)cccc4F)s3)CC2)cn1 [Example V43] | 17% |
| 88% |  |  | Nc1nc(NC2CCN(S(=O)(=O)CCCNC3CCCC3)CC2)sc1C(=O)c1c(F)cccc1F [Example V75] | 19% |
| 91% |  |  | Cc1ccc(CNCCCS(=O)(=O)N2CCC(Nc3nc(N)c(C(=O)c4c(F)cccc4F)s3)CC2)cc1 [Example V80] | 21% |
| 88% |  |  | CCc1ccc(C)cc1NCCCS(=O)(=O)N1CCC(Nc2nc(N)c(C(=O)c3c(F)cccc3F)s2)CC1 [Example V112] | 57% |
| 77% |  |  | C[C@H](NCCCS(=O)(=O)N1CCC(Nc2nc(N)c(C(=O)c3c(F)cccc3F)s2)CC1)C(N)=O [Example V121] | 4% |
| 71% |  |  | Nc1nc(NC2CCN(S(=O)(=O)CCCN3CCC(CO)CC3)CC2)sc1C(=O)c1c(F)cccc1F [Example V133] | 0% |
| 85% |  |  | Nc1nc(NC2CCN(S(=O)(=O)CCCN[C@@H]3CCCC[C@@H]3CO)CC2)sc1C(=O)c1c(F)cccc1F [Example V71] | 5% |
| 78% |  |  | COCCN(C)CCCS(=O)(=O)N1CCC(Nc2nc(N)c(C(=O)c3c(F)cccc3F)s2)CC1 [Example V107] | 36% |
| 90% |  |  | CN(CCCS(=O)(=O)N1CCC(Nc2nc(N)c(C(=O)c3c(F)cccc3F)s2)CC1)Cc1ccccc1 [Example V13] | 79% |
| 81% |  |  | CCOCCNCCCS(=O)(=O)N1CCC(Nc2nc(N)c(C(=O)c3c(F)cccc3F)s2)CC1 [Example V98] | 21% |
|  | 8 nM | 170 nM | CN(CCCS(=O)(=O)N1CCC(Nc2nc(N)c(C(=O)c3c(F)cccc3F)s2)CC1)C1CCCCC1 [Example K61, (4-Amino-2-{1-[3-(cyclohexyl-methyl-amino)-propane-1-sulfonyl]-piperidin-4-ylamino}-thiazol-5-yl)-(2,6-difluoro-phenyl)-methanone. Acetic Acid Salt] |  |
|  | 13 nM | 120 nM | CC1(C)CCCN(CCCS(=O)(=O)N2CCC(Nc3nc(N)c(C(=O)c4c(F)cccc4F)s3)CC2)C1 [Example K60, {4-Amino-2-[(1-{[3-(3,3-dimethylpiperidin-1-yl)propyl]sulfonyl}piperidin-4-yl)amino]-1,3-thiazol-5-yl}(2,6-difluorophenyl)methanone] |  |
| 90% |  |  | Nc1nc(NC2CCN(S(=O)(=O)CCCNC3CCCCCCC3)CC2)sc1Cc1c(F)cccc1F [Example V158] | 23% |
| 67% |  |  | Nc1nc(NC2CCN(S(=O)(=O)CCCN3CCN(CCO)CC3)CC2)sc1C(=O)c1c(F)cccc1F [Example V34] | 16% |
| 76% |  |  | CN(CCCS(=O)(=O)N1CCC(Nc2nc(N)c(C(=O)c3c(F)cccc3F)s2)CC1)CC(N)=O [Example V138] | 0% |
| 81% |  |  | CCCN(CCCS(=O)(=O)N1CCC(Nc2nc(N)c(C(=O)c3c(F)cccc3F)s2)CC1)CC1CC1 [Example V61] | 65% |
| 70% |  |  | CN(C)CCN(C)CCCS(=O)(=O)N1CCC(Nc2nc(N)c(C(=O)c3c(F)cccc3F)s2)CC1 [Example V95] | 3% |
| 83% |  |  | CC1CN(CCCS(=O)(=O)N2CCC(Nc3nc(N)c(C(=O)c4c(F)cccc4F)s3)CC2)CC(C)O1 (centres unmarked) [Example V31] | 48% |

| inhibition at 0.05 µM (CDK2/Cyclin A) | Ki (CDK2/Cyclin A) | IC50 (HCT-116 cell line) | Compound | inhibition at 0.175 µM (HCT-116 cell line) |
| --- | --- | --- | --- | --- |
| 82% |  |  | Nc1nc(NC2CCN(S(=O)(=O)CCCNCCCc3c[nH]cn3)CC2)sc1C(=O)c1c(F)cccc1F [Example V146] | 13% |
| 83% |  |  | Nc1nc(NC2CCN(S(=O)(=O)CCCNCC3COCCO3)CC2)sc1C(=O)c1c(F)cccc1F (centres unmarked) [Example V163] | 2% |
| 61% |  |  | CNCCCS(=O)(=O)N1CCC(Nc2nc(N)c(C(=O)c3c(F)cccc3F)s2)CC1 [Example V86] | 22% |
| 79% |  |  | CC(O)CNCCCS(=O)(=O)N1CCC(Nc2nc(N)c(C(=O)c3c(F)cccc3F)s2)CC1 (centres unmarked) [Example V42] | 4% |
| 80% |  |  | CCOC(=O)CCNCCCS(=O)(=O)N1CCC(Nc2nc(N)c(C(=O)c3c(F)cccc3F)s2)CC1 [Example V132] | 20% |
| 80% |  |  | Nc1nc(NC2CCN(S(=O)(=O)CCCN(CCO)CCO)CC2)sc1C(=O)c1c(F)cccc1F [Example V78] | 7% |
| 80% |  |  | Cc1cc(NCCCS(=O)(=O)N2CCC(Nc3nc(N)c(C(=O)c4c(F)cccc4F)s3)CC2)no1 [Example V44] | 17% |
| 84% |  |  | C=CCNCCCS(=O)(=O)N1CCC(Nc2nc(N)c(C(=O)c3c(F)cccc3F)s2)CC1 [Example V103] | 37% |
| 17% |  |  | Nc1nc(NC2CCN(S(=O)(=O)CCCN3CCCC3)CC2)sc1C(=O)c1c(F)cccc1F [Example V64] | 0% |
| 84% |  |  | Nc1nc(NC2CCN(S(=O)(=O)CCCNC3CCOCC3)CC2)sc1C(=O)c1c(F)cccc1F [Example V153] | 0% |
| 78% |  |  | Nc1nc(NC2CCN(S(=O)(=O)CCCNCCN3CCCC3)CC2)sc1C(=O)c1c(F)cccc1F [Example V9] | 13% |
| 81% |  |  | CC1=NNC(=O)C1CNCCCS(=O)(=O)N1CCC(Nc2nc(N)c(C(=O)c3c(F)cccc3F)s2)CC1 (centres unmarked) [Example V172] | 11% |
|  | 7 nM | 480 nM | C=CCNCCCS(=O)(=O)N1CCC(Nc2nc(N)c(C(=O)c3c(F)cccc3F)s2)CC1 [Example K57, {2-[1-(3-Allylamino-propane-1-sulfonyl)-piperidin-4-ylamino]-4-amino-thiazol-5-yl}-(2,6-difluoro-phenyl)-methanone. Trifluoroacetic Acid Salt] |  |
| 75% |  |  | CN(C)CCNCCCS(=O)(=O)N1CCC(Nc2nc(N)c(C(=O)c3c(F)cccc3F)s2)CC1 [Example V54] | 0% |
| 71% |  |  | CC(=O)NC1CCN(CCCS(=O)(=O)N2CCC(Nc3nc(N)c(C(=O)c4c(F)cccc4F)s3)CC2)C1 (centres unmarked) [Example V41] | 14% |
| 78% |  |  | C=CCN(C)CCCS(=O)(=O)N1CCC(Nc2nc(N)c(C(=O)c3c(F)cccc3F)s2)CC1 [Example V135] | 82% |
| 83% |  |  | NC(=O)C1CCN(CCCS(=O)(=O)N2CCC(Nc3nc(N)c(C(=O)c4c(F)cccc4F)s3)CC2)CC1 [Example V45] | 25% |
| 88% |  |  | CCSCCNCCCS(=O)(=O)N1CCC(Nc2nc(N)c(C(=O)c3c(F)cccc3F)s2)CC1 [Example V129] | 49% |
| 83% |  |  | Nc1nc(NC2CCN(S(=O)(=O)CCCN[C@H]3CCC(=O)NC3)CC2)sc1C(=O)c1c(F)cccc1F [Example V157] | 46% |
| 93% |  |  | Nc1nc(NC2CCN(S(=O)(=O)CCCNc3cc(O)c4ccccc4n3)CC2)sc1C(=O)c1c(F)cccc1F [Example V140] | 0% |
